Test system: Dkk1-LRP5-TCF-Luciferase
Test: Functional Dkk1-LRP5-TCF-Luciferase Assay in U2OS Cells
Conditions: for fold induction at 2 µM / fold induction at 20 µM / EC50: Homo sapiens, U2OS; for fold induction at 2 µM: read-out: B = TCF ACTIVITY/DMSO CONTROL Fold induction @ 2.0 uM, 2.0 uM compound; for fold induction at 20 µM: read-out: C = TCF ACTIVITY/DMSO CONTROL Fold induction @ 20.0 uM, 20.0 uM compound; for A = MAX FOLD Induction/DMSO CONTROL: maximum fold induction over DMSO control

A = MAX FOLD Induction/DMSO CONTROL [fold]	EC50 [µM]	Compound	fold induction at 2 µM	fold induction at 20 µM
–	–	CN(C)C(=O)N1CCC(CNc2nccc(-c3ccc4ccccc4c3)n2)CC1 [N,N-dimethyl-4-({[4-(2-naphthyl)pyrimidin-2-yl]amino}methyl)piperidine-1-carboxamide]	0.87	1.24
–	–	CN(C)S(=O)(=O)N1CCC(CNc2nccc(-c3ccc4ccccc4c3)n2)CC1 [N,N-dimethyl-4-({[4-(2-naphthyl)pyrimidin-2-yl]amino}methyl)piperidine-1-sulfonamide]	–	1.21
1.520	–	CN(C)C(=O)N1CCCN(c2nccc(-c3ccc4ccccc4c3)n2)CC1 [N,N-dimethyl-4-[4-(2-naphthyl)pyrimidin-2-yl]-1,4-diazepane-1-carboxamide]	1.2	2.26
–	–	CN(C)S(=O)(=O)N1CCCN(c2nccc(-c3ccc4ccccc4c3)n2)CC1 [N,N-dimethyl-4-[4-(2-naphthyl)pyrimidin-2-yl]-1,4-diazepane-1-sulfonamide]	–	0.63
1.810	0.64	CN(C)C(=O)N1CCC(Nc2nccc(-c3ccc4ccccc4c3)n2)CC1 [N,N-dimethyl-4-{[4-(2-naphthyl)pyrimidin-2-yl]amino}piperidine-1-carboxamide]	1.13	1.58
3.210	12	CN(C)S(=O)(=O)N1CCC(Nc2nccc(-c3ccc4ccccc4c3)n2)CC1 [N,N-dimethyl-4-{[4-(2-naphthyl)pyrimidin-2-yl]amino}piperidine-1-sulfonamide]	0.97	1.75
–	–	CN(C)C(=O)N1CCC(N(C)c2nccc(-c3ccc4ccccc4c3)n2)CC1 [N,N-dimethyl-4-{methyl[4-(2-naphthyl)pyrimidin-2-yl]amino}piperidine-1-carboxamide]	1.37	0.68
–	–	CN(C)C(=O)NCCC1CCN(c2nccc(-c3ccc4ccccc4c3)n2)CC1 [N,N-dimethyl-N′-(2-{1-[4-(2-naphthyl)pyrimidin-2-yl]piperidin-4-yl}ethyl)urea]	1.48	0.18
–	–	CN(C)C(=O)NCCN1CCN(c2nccc(-c3ccc4ccccc4c3)n2)CC1 [N,N-dimethyl-N′-(2-{4-[4-(2-naphthyl)pyrimidin-2-yl]piperazin-1-yl}ethyl)urea]	1.98	–
–	–	CN(C)S(=O)(=O)N[C@H]1CC[C@H](Nc2nccc(-c3ccc4ccccc4c3)n2)CC1 [N,N-dimethyl-N′-(trans-4-{[4-(2-naphthyl)pyrimidin-2-yl]amino}cyclohexyl)sulfamide]	1.65	1.74
2.270	–	CN(C)C(=O)N[C@H]1CC[C@H](Nc2nccc(-c3ccc4ccccc4c3)n2)CC1 [N,N-dimethyl-N′-(trans-4-{[4-(2-naphthyl)pyrimidin-2-yl]amino}cyclohexyl)urea]	2.78	1.61
–	–	CN(C)C(=O)NCC1CN(c2nccc(-c3ccc4ccccc4c3)n2)C1 [N,N-dimethyl-N′-({1-[4-(2-naphthyl)pyrimidin-2-yl]azetidin-3-yl}methyl)urea]	0.99	1.43
–	–	CN(C)S(=O)(=O)NCC1CCN(c2nccc(-c3ccc4ccccc4c3)n2)CC1 [N,N-dimethyl-N′-({1-[4-(2-naphthyl)pyrimidin-2-yl]piperidin-4-yl}methyl)sulfamide]	1.05	1.11
1.690	4.03	CN(C)C(=O)NCC1CCN(c2nccc(-c3ccc4ccccc4c3)n2)CC1 [N,N-dimethyl-N′-({1-[4-(2-naphthyl)pyrimidin-2-yl]piperidin-4-yl}methyl)urea]	1.12	2.36
–	–	CN(C)S(=O)(=O)NCC1CCN(c2nccc(-c3ccc4ccccc4c3)n2)C1 (centres unmarked) [N,N-dimethyl-N′-({1-[4-(2-naphthyl)pyrimidin-2-yl]pyrrolidin-3-yl}methyl)sulfamide]	0.99	1.2
–	–	CN(C)C(=O)NCC1CCN(c2nccc(-c3ccc4ccccc4c3)n2)C1 (centres unmarked) [N,N-dimethyl-N′-({1-[4-(2-naphthyl)pyrimidin-2-yl]pyrrolidin-3-yl}methyl)urea]	0.84	1.15
–	–	CN(C)S(=O)(=O)NC1CCCN(c2nccc(-c3ccc4ccccc4c3)n2)CC1 (centres unmarked) [N,N-dimethyl-N′-{1-[4-(2-naphthyl)pyrimidin-2-yl]azepan-4-yl}sulfamide]	1.12	1.01
–	–	CN(C)C(=O)NC1CCCN(c2nccc(-c3ccc4ccccc4c3)n2)CC1 (centres unmarked) [N,N-dimethyl-N′-{1-[4-(2-naphthyl)pyrimidin-2-yl]azepan-4-yl}urea]	1.74	1.75
–	–	CN(C)CCN[C@@H]1CCN(c2nccc(-c3ccc4ccccc4c3)n2)C1 [N,N-dimethyl-N′-{(3R)-1-[4-(2-naphthyl)pyrimidin-2-yl]pyrrolidin-3-yl}ethane-1,2-diamine]	2.5	–
–	–	CN(C)S(=O)(=O)N[C@@H]1CCN(c2nccc(-c3ccc4ccccc4c3)n2)C1 [N,N-dimethyl-N′-{(3R)-1-[4-(2-naphthyl)pyrimidin-2-yl]pyrrolidin-3-yl}sulfamide]	1.42	0.82
–	–	CN(C)C(=O)N[C@@H]1CCN(c2nccc(-c3ccc4ccccc4c3)n2)C1 [N,N-dimethyl-N′-{(3R)-1-[4-(2-naphthyl)pyrimidin-2-yl]pyrrolidin-3-yl}urea]	1.79	0.26
–	–	CN(C)CCN[C@H]1CCN(c2nccc(-c3ccc4ccccc4c3)n2)C1 [N,N-dimethyl-N′-{(3S)-1-[4-(2-naphthyl)pyrimidin-2-yl]pyrrolidin-3-yl}ethane-1,2-diamine]	1.5	–
–	–	CN(C)S(=O)(=O)N[C@H]1CCN(c2nccc(-c3ccc4ccccc4c3)n2)C1 [N,N-dimethyl-N′-{(3S)-1-[4-(2-naphthyl)pyrimidin-2-yl]pyrrolidin-3-yl}sulfamide]	1.87	–
–	–	CN(C)C(=O)N[C@H]1CCN(c2nccc(-c3ccc4ccccc4c3)n2)C1 [N,N-dimethyl-N′-{(3S)-1-[4-(2-naphthyl)pyrimidin-2-yl]pyrrolidin-3-yl}urea]	0.94	1.65
–	–	CCCN(C)CCN(C)[C@@H]1CCN(c2nccc(-c3ccc4ccccc4c3)n2)C1 [N,N′-dimethyl-N-{(3R)-1-[4-(2-naphthyl)pyrimidin-2-yl]pyrrolidin-3-yl}-N′-propylethane-1,2-diamine]	3.4	–
–	–	CNCCN(C)[C@@H]1CCN(c2nccc(-c3ccc4ccccc4c3)n2)C1 [N,N′-dimethyl-N-{(3R)-1-[4-(2-naphthyl)pyrimidin-2-yl]pyrrolidin-3-yl}ethane-1,2-diamine]	1.2	–
2.428	5.5	CC(=O)N1CCC(Nc2nccc(-c3ccc4ccccc4c3)n2)CC1 [N-(1-acetylpiperidin-4-yl)-4-(2-naphthyl)pyrimidin-2-amine]	1.09	2.53

Reference: patent US20090054392A1, “NAPHTHYLPYRIMIDINE, NAPHTHYLPYRAZINE AND NAPHTHYLPYRIDAZINE ANALOGS AND THEIR USE AS AGONISTS OF THE WNT-BETA-CATENIN CELLULAR MESSAGING SYSTEM” (Wyeth, priority 2007, published 2009)
